# Measured values: patent US20110086759A1, “CHEMICAL COMPOUNDS” (SYNGENTA CROP PROTECTION, INC., priority 2007, published 2011)
# Tests used:
# Type in all cases: in vivo
# [1] = test system: Echinochloa crus-galli (ECHCG); test: Pre-emergence biological efficacy, glasshouse pot test; conditions: 312 h, pre-emergence, rate 1,000 g/ha, evaluated after 13 days (100=total damage to plant; 0=no damage), read-out: Percentage damage caused to weed species, ECHCG
# In short: (§1)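 Scores on a 0–100 damage scale were taken 13 days after spraying. Application rate 1000 or 250 g/ha, one day after sowing, in acetone/water-based aqueous spray containing 0.5% Tween 20.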
# Setaria faberi (SETFA) [2] = test: as above; conditions: 312 h, pre-emergence, rate 1,000 g/ha, evaluated after 13 days (100=total damage to plant; 0=no damage), read-out: Percentage damage caused to weed species, SETFA
# In short: as §1
# [3] = test system: Alopecurus myosuroides (ALOMY); test: as above; conditions: 312 h, pre-emergence, rate 1,000 g/ha, evaluated after 13 days (100=total damage to plant; 0=no damage), read-out: Percentage damage caused to weed species, ALOMY
# In short: as §1
# [4] = test system: Amaranthus retoflexus (AMARE); test: as above; conditions: Amaranthus retroflexus, 312 h; pre-emergence, rate 1,000 g/ha, evaluated after 13 days (100=total damage to plant; 0=no damage); read-out: Percentage damage caused to weed species, AMARE
# In short: as §1
# Solanum nigrum (SOLNI) [5] = test: as above; conditions: 312 h, pre-emergence, rate 1,000 g/ha, evaluated after 13 days (100=total damage to plant; 0=no damage), read-out: Percentage damage caused to weed species, SOLNI
# In short: as §1
# [6] = test system: Ipomea hederaceae (IPOHE); test: as above; conditions: Ipomoea hederacea, 312 h; pre-emergence, rate 1,000 g/ha, evaluated after 13 days (100=total damage to plant; 0=no damage); read-out: Percentage damage caused to weed species, IPOHE
# In short: as §1
# [7] = test system: Echinochloa crus-galli (ECHCG); test: Post-emergence biological efficacy, glasshouse pot test; conditions: 312 h, Rate 1,000 g/ha, post-emergence spray, evaluated after 13 days (100=total damage to plant; 0=no damage to plant), read-out: Percentage damage caused to weed species, post-emergence, ECHCG
# In short: (§2)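 Scored 13 days after spraying on a 0 (no damage) to 100 (total damage) scale. Treatment was a post-emergence spray at 1000 or 250 g/ha, from acetone/water 50:50 plus 0.5% Tween 20, onto 8-day-old plants in soil pots. Growth at 24/16° C, 14 h photoperiod, 65% humidity, watered twice daily.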
# Setaria faberi (SETFA) [8] = test: as above; conditions: 312 h, Rate 1,000 g/ha, post-emergence spray, evaluated after 13 days (100=total damage to plant; 0=no damage to plant), read-out: Percentage damage caused to weed species, post-emergence, SETFA
# In short: as §2
# [9] = test system: Alopecurus myosuroides (ALOMY); test: as above; conditions: 312 h, Rate 1,000 g/ha, post-emergence spray, evaluated after 13 days (100=total damage to plant; 0=no damage to plant), read-out: Percentage damage caused to weed species, post-emergence, ALOMY
# In short: as §2
# [10] = test system: Amaranthus retoflexus (AMARE); test: as above; conditions: Amaranthus retroflexus, 312 h; Rate 1,000 g/ha; post-emergence spray; evaluated after 13 days (100=total damage to plant; 0=no damage to plant); read-out: Percentage damage caused to weed species, post-emergence, AMARE
# In short: as §2
# Solanum nigrum (SOLNI) [11] = test: as above; conditions: 312 h, Rate 1,000 g/ha, post-emergence spray, evaluated after 13 days (100=total damage to plant; 0=no damage to plant), read-out: Percentage damage caused to weed species, post-emergence, SOLNI
# In short: as §2
# [12] = test system: Ipomea hederaceae (IPOHE); test: as above; conditions: Ipomoea hederacea, 312 h; Rate 1,000 g/ha; post-emergence spray; evaluated after 13 days (100=total damage to plant; 0=no damage to plant); read-out: Percentage damage caused to weed species, post-emergence, IPOHE
# In short: as §2
SMILES,pest or weed control at 1000 g/ha [1] [%],pest or weed control at 1000 g/ha (Setaria faberi (SETFA) [2]) [%],pest or weed control at 1000 g/ha [3] [%],pest or weed control at 1000 g/ha [4] [%],pest or weed control at 1000 g/ha (Solanum nigrum (SOLNI) [5]) [%],pest or weed control at 1000 g/ha [6] [%],pest or weed control at 1000 g/ha [7] [%],pest or weed control at 1000 g/ha (Setaria faberi (SETFA) [8]) [%],pest or weed control at 1000 g/ha [9] [%],pest or weed control at 1000 g/ha [10] [%],pest or weed control at 1000 g/ha (Solanum nigrum (SOLNI) [11]) [%],pest or weed control at 1000 g/ha [12] [%]
"COC(=O)c1nc(C2CC2)nc(N(C)Cc2ccc([N+](=O)[O-])cc2)c1Cl [Compound 5-92, 5-Chloro-2-cyclopropyl-6-methoxycarbonyl-4-[N-methyl-N-(4-nitrophenylmethyl)-amino]-pyrimidine]",10,10,20,90,60,70,40,60,50,100,80,100
"COC(=O)c1nc(C2CC2)nc(N(C)Cc2c(Cl)cccc2Cl)c1Cl [Compound 5-104, 5-Chloro-2-cyclopropyl-4-[N-(2,6-dichlorophenyl-methyl)-N-methyl-amino]-6-methoxy-carbonylpyrimidine]",0,0,0,30,10,40,0,20,0,60,60,70
"COC(=O)c1nc(C2CC2)nc(N(C)Cc2ccc(Cl)c(Cl)c2)c1Cl [Compound 5-105, 5-Chloro-2-cyclopropyl-4-[N-(3,4-dichlorophenyl-methyl)-N-methyl-amino]-6-methoxy-carbonylpyrimidine]",10,30,10,80,60,60,40,60,30,100,80,80
"COC(=O)c1nc(C2CC2)nc(N(C)Cc2cc(OC)cc(OC)c2)c1Cl [Compound 5-113, 5-Chloro-2-cyclopropyl-4-[N-(3,5-dimethoxy-phenylmethyl)-N-methyl-amino]-6-methoxycarbonyl-pyrimidine]",0,0,0,70,10,60,10,30,10,80,70,70
"CCOc1ccc(CN(C)c2nc(C3CC3)nc(C(=O)OC)c2Cl)cc1OCC [Compound 5-114, 5-Chloro-2-cyclopropyl-4-[N-(3,4-diethoxy-phenylmethyl)-N-methyl-amino]-6-methoxycarbonyl-pyrimidine]",0,20,0,70,20,40,20,40,10,100,80,70
"COC(=O)c1nc(C2CC2)nc(N(C)Cc2ccco2)c1Cl [Compound 5-125, 5-Chloro-2-cyclopropyl-4-(N-furan-2-ylmethyl-N-methyl-amino)-6-methoxycarbonyl-pyrimidine]",70,80,40,100,90,100,60,80,50,100,90,100
"COC(=O)c1nc(C2CC2)nc(N(C)Cc2ccc(C)o2)c1Cl [Compound 5-135, 5-Chloro-2-cyclopropyl-6-methoxycarbonyl-4-[N-methyl-N-(5-methylfuran-2-ylmethyl)-amino]-pyrimidine]",0,10,30,100,90,100,40,80,30,100,90,100
"COC(=O)c1nc(C2CC2)nc(N(C)Cc2nonc2C)c1Cl [Compound 5-149, 5-Chloro-2-cyclopropyl-6-methoxycarbonyl-4-[N-methyl-N-(4-methyl-1,2,5-oxadiazol-3-ylmethyl)-amino]-pyrimidine]",20,10,30,80,40,80,40,80,40,100,90,90
"COC(=O)c1nc(C2CC2)nc(N(C)Cc2cccnc2)c1Cl [Compound 5-156, 5-Chloro-2-cyclopropyl-6-methoxycarbonyl-4-(N-methyl-N-pyridin-3-ylmethyl-amino)pyrimidine]",0,0,10,90,20,60,20,60,30,100,80,80
"COC(=O)c1nc(C2CC2)nc(N(C)Cc2ccncc2)c1Cl [Compound 5-160, 5-Chloro-2-cyclopropyl-6-methoxycarbonyl-4-(N-methyl-N-pyridin-4-ylmethyl-amino)pyrimidine]",20,0,0,80,40,70,0,60,20,100,80,100
